From patent US20250101017A1, “SALT CRYSTAL FORM AND FREE BASE CRYSTAL FORM OF KINASE INHIBITOR” (CYTOSINLAB THERAPEUTICS CO., LTD., priority 2022, published 2025)
Where two headings read alike, the source gives them in different places.

Key:
Assay type in all cases: physicochemical
[1] = Solid stability of crystal forms (80° C., light exposure, 25° C./60% RH, 40° C./75% RH); purity by liquid chromatography and XRPD of the solids
Method: A certain amount of API and malate crystal form VII-A were weighed and added into a liquid phase vial, and a total of 9 parallels were prepared. The 9 parallels were placed separately in 80° C. (open); 25° C., 60% RH (open); 40° C., 75% RH (open); and light stability box closed). The stabilities under conditions of: 80° C. for one day, light exposure for 10 days, as well as 25° C., 60% RH and 40° C., 75% RH for one and two weeks were tested, and the XRPD of the solids were measured.
A certain amount of crystal form B was weighed and added into a liquid phase vial, and a total of 9 parallels were prepared. 9 parallels were placed separately in 80° C.; 25° C., 60% RH, 40° C., 75% RH; and light stability boxe.

[2] = Competitive pulping of API (free base Form A) and Form B in saturated DCM or water solution at 50° C., XRPD
Method: A saturated solution of API (free base Form A) in DCM and water was prepared. Approximately 10 mg of API (free base Form A) and free base crystal form Form B was weighed respectively and added into a 4 ml glass bottle, and 1 mL of the saturated solution was added. […] The resulting solid was subjected to XRPD testing.

[3] = Solubility at 37° C. in buffer solutions with different pH (about 10 mg in 1 ml, 2 h and 24 h); filtrate concentration and pH, XRPD of remaining solid; details: thermodynamic from solid
Method: Approximately 10 mg of malate crystal form VII-A and free base Form A were weighed separately, and 1 ml of buffer solutions with different pH were added to make the solution supersaturated, and the mixtures were stirred at 37° C. for 2 h and 24 hours. The samples were filtered, and the filtrates were measured to determine the concentration and pH value, and the remaining solid was subjected to XRPD determination. The specific results were as follows: […]

[4] = 25° C., 60% RH, 1 week, listed as API
[5] = 25° C., 60% RH, 2 weeks, listed as API
[6] = 40° C., 75% RH, 1 week, listed as API
[7] = 40° C., 75% RH, 2 weeks, listed as API
[8] = Light control, 10 days, listed as API
[9] = Light exposure, 10 days, listed as API

For CCc1nc2c(N)ncc(-c3ccc(N4CCC(N5CCN(CC)CC5)CC4)c(OC)c3)c2nc1NC1CCOCC1 [Free base Form A, 3-ethyl-8-(4-(4-(4-ethylpiperazin-1-yl)piperidin-1-yl)-3-methoxyphenyl)-N2-(tetrahydro-2H-pyran-4-yl) pyridino [3,4-b]pyrazine-2,5-diamine], the “Degradation (%)” value ([1]; 25° C., 60% RH (open), 1 week) was 0.03%, the “Purity (%)” value ([1]; 25° C., 60% RH (open), 1 week) was 95.50% and the Crystal form ([1]; 25° C., 60% RH (open), 1 week, XRPD) was “Unchanged”. For the same compound, the “Degradation (%)” value ([1]; 25° C., 60% RH (open), 2 weeks) was 0.04%, the “Purity (%)” value ([1]; 25° C., 60% RH (open), 2 weeks) was 95.49% and the Crystal form ([1]; 25° C., 60% RH (open), 2 weeks, XRPD) was “Unchanged”. For the same compound, the Crystal form ([1]; 25° C., 60% RH, 1 week) was “Unchanged”, the Degradation [1, 4] was 0.03% and the Purity [1, 4] was 95.50%. For the same compound, the Crystal form ([1]; 25° C., 60% RH, 2 weeks) was “Unchanged”, the Degradation [1, 5] was 0.04% and the Purity [1, 5] was 95.49%. The “Degradation (%)” value ([1]; 40° C., 75% RH (open), 1 week) was 0.04%, the “Purity (%)” value ([1]; 40° C., 75% RH (open), 1 week) was 95.49% and the Crystal form ([1]; 40° C., 75% RH (open), 1 week, XRPD) was “Unchanged”. For the same compound, the “Degradation (%)” value ([1]; 40° C., 75% RH (open), 2 weeks) was 2.93%, the “Purity (%)” value ([1]; 40° C., 75% RH (open), 2 weeks) was 92.60% and the Crystal form ([1]; 40° C., 75% RH (open), 2 weeks, XRPD) was “Unchanged”. The Crystal form ([1]; 40° C., 75% RH, 1 week) was “Unchanged”, the Degradation [1, 6] was 0.04% and the Purity [1, 6] was 95.49%. The Crystal form ([1]; 40° C., 75% RH, 2 weeks) was “Unchanged”, the Degradation [1, 7] was 2.93% and the Purity [1, 7] was 92.60%. The “Degradation (%)” value ([1]; 80° C. (open), 1 day) was 0.14%, the “Purity (%)” value ([1]; 80° C. (open), 1 day) was 95.39% and the Crystal form ([1]; 80° C. (open), 1 day, XRPD) was “changed”. The Crystal form ([1]; 80° C., 1 day, listed as API) was “changed”, the Degradation ([1]; 80° C., 1 day, listed as API) was 0.14% and the Purity ([1]; 80° C., 1 day, listed as API) was 95.39%. The “Degradation (%)” value ([1]; Light contral, 10 days) was 0.02%, the “Purity (%)” value ([1]; Light contral, 10 days) was 95.51% and the Crystal form ([1]; Light contral, 10 days, XRPD) was “Unchanged”. The Crystal form ([1]; Light control, 10 days) was “Unchanged”, the Degradation [1, 8] was 0.02% and the Purity [1, 8] was 95.51%. The “Degradation (%)” value ([1]; Light exposure, 10 days) was 7.89%, the “Purity (%)” value ([1]; Light exposure, 10 days) was 88.14% and the Crystal form ([1]; Light exposure, 10 days, XRPD) was “changed”. The Crystal form [1, 9] was “changed”, the Degradation [1, 9] was 7.89% and the Purity [1, 9] was 88.14%. The “Purity (%)” value ([1]; initial) was 95.53%, the Purity ([1]; initial, listed as API) was 95.53% and the Degradation ([1]; light exposure and 40° C., 75% RH) was “varying degrees of degradation”. The “solid crystal form obtained by competitive pulping” value ([2]; API and Form B together in DCM, 50° C., 3 days, XRPD) was “tended to approach Form L”, the “appearance after competitive pulping” value ([2]; API and Form B together in DCM, after 5 days of beating) was “became oily” and the “crystal form obtained by competitive pulping” value ([2]; API and Form B together in water, 50° C., 3 days, XRPD) was “a mixture of Form B and API”. The XRPD results ([2]; competitive pulping of API and Form B, DCM, 50° C., 3 days) was “Form K”, the solubility at 2 h ([3]; buffer solution pH 1.2, 37 °C, pH 1.2, simulated gastric fluid, medium pH 1.2, 2 h, read-out: Solubility at 37° C.) was > 10 mg/mL and the solubility at 24 h ([3]; buffer solution pH 1.2, 37 °C, pH 1.2, simulated gastric fluid, medium pH 1.2, 24 h, read-out: Solubility at 37° C.) was > 10 mg/mL. The solubility at 2 h ([3]; buffer solution pH 3.0, 37 °C, pH 3, aqueous buffer, medium pH 3.0, 2 h, read-out: Solubility at 37° C.) was > 10 mg/mL, the solubility at 24 h ([3]; buffer solution pH 3.0, 37 °C, pH 3, aqueous buffer, medium pH 3.0, 24 h, read-out: Solubility at 37° C.) was > 10 mg/mL and the solubility at 2 h ([3]; buffer solution pH 4.5, 37 °C, pH 4.5, aqueous buffer, medium pH 4.5, 2 h, read-out: Solubility at 37° C.) was > 10 mg/mL. For the same compound, the solubility at 2 h ([3]; buffer solution pH 4.5, 37 °C, pH 4.5, aqueous buffer, medium pH 4.5, 2 h, read-out: Solubility at 37° C. (mg/ml) 2 h) was > 10 mg/mL, the solubility at 24 h ([3]; buffer solution pH 4.5, 37 °C, pH 4.5, aqueous buffer, medium pH 4.5, 24 h, read-out: Solubility at 37° C.) was > 10 mg/mL and the solubility at 24 h ([3]; buffer solution pH 4.5, 37 °C, pH 4.5, aqueous buffer, medium pH 4.5, 24 h, read-out: Solubility at 37° C. (mg/ml) 24 h) was > 10 mg/mL.
